Measurements published in patent US10828317B2, “Method of treating bacterial infections” (priority 2016, dated 2020).

Assays:
K. pneumoniae EN0262 = test: MIC, ESBL (+), KPC+; type: cell-based; conditions: combination FdUrd+trimethoprim+uridine, Table 19 and 21
S. aureus no. 11 = test: MIC; type: cell-based
E. coli EN0138 = test: MIC, ESBL (CTX-M-9); type: cell-based; conditions: combination FdUrd+trimethoprim+uridine, Table 19
E. coli EN0134 = test: MIC, AmpC (CMY-4); type: cell-based; conditions: combination FdUrd+trimethoprim+uridine, Table 19
S. flexneri APV00906 = test: microbe, parasite or virus in culture; type: cell-based; conditions: combination FdUrd+trimethoprim+uridine, Table 22A
Description: (§1) Inhibition of Heliobacter is important in view of increasing resistance and its association to gastric cancer.

A. baumannii EN017 = type: cell-based, Acinetobacter baumannii; conditions: combination FdUrd+trimethoprim+uridine, Table 8
K. pneumoniae EN011 = type: cell-based, Klebsiella pneumoniae; conditions: combination FdUrd+trimethoprim+uridine, Table 8
E. aerogenes EN0461 = test: MIC; type: cell-based, Enterobacter aerogenes; conditions: combination FdUrd+trimethoprim+uridine, Table 8
K. pneumoniae EN0233 = test: MIC; type: cell-based; conditions: combination FdUrd+trimethoprim+uridine, Table 19
P. aeruginosa EN015 = type: cell-based, Pseudomonas aeruginosa; conditions: combination FdUrd+trimethoprim+uridine, Table 8
E. coli strain no 2 = test: MIC vs E. coli LMG 15862, penicillin resistant; conditions: Table 26B
E. coli EN013 = type: cell-based, Escherichia coli; conditions: combination FdUrd+trimethoprim+uridine, Table 8
P. aeruginosa EN005 = conditions: combination FdUrd+trimethoprim+uridine, Table 8
P. aeruginosa EN004 = test: MIC, WT (EN004 = EN0004); type: cell-based, Pseudomonas aeruginosa; conditions: combination FdUrd+trimethoprim+uridine
K. pneumoniae EN010 = test: MIC, WT; type: cell-based, Klebsiella pneumoniae; conditions: combination FdUrd+trimethoprim+uridine, Table 8
[1] = test system: Helicobacter pylori ATTC43504; test: MIC; type: cell-based; conditions: combination FdUrd+trimethoprim+uridine, Table 22A
Description: as §1

[2] = test system: Helicobacter pylori APV00918; test: MIC; type: cell-based; conditions: combination FdUrd+trimethoprim+uridine, Table 22A
Description: as §1

E. coli EN0139 = test: MIC, ESBL (CTX-M-15); type: cell-based; conditions: combination FdUrd+trimethoprim+uridine, Table 19
K. pneumoniae EN0437 = test: MIC, colistinR; type: cell-based; conditions: combination FdUrd+trimethoprim+uridine, Table 19
K. pneumoniae EN0143 = test: MIC, ESBL (SHV-12); type: cell-based; conditions: combination FdUrd+trimethoprim+uridine, Table 19
S. aureus no. 12 = test: MIC vs S. aureus LMG 10147, MSSA; type: cell-based, Staphylococcus aureus; conditions: Uridine 0 μg/ml
S. aureus strain no 13 = test: MIC vs S. aureus LMG 15975, MRSA; conditions: Uridine 0 μg/ml
K. pneumoniae EN0401 = test: MIC, Carbapenemase + ESBL; type: cell-based; conditions: combination FdUrd+trimethoprim+uridine, Table 19
E. coli EN0135 = test: MIC, ESBL (SHV-2a); type: cell-based; conditions: combination FdUrd+trimethoprim+uridine, Table 19
S. aureus V308 = test: MIC; type: cell-based
K. pneumoniae EN0436 = test: MIC, colistinR; type: cell-based; conditions: combination FdUrd+trimethoprim+uridine, Table 19
[3] = Iclaprim 0.008 μg/ml, Uridine 0 μg/ml
[4] = Iclaprim 0.008 μg/ml, Uridine 100 μg/ml
[5] = Iclaprim 0.03 μg/ml, Uridine 0 μg/ml
[6] = Iclaprim […], Uridine 100 μg/ml

O=c1[nH]c(=O)n([C@H]2C[C@H](O)[C@@H](CO)O2)cc1F [FdUrd, Fluorodeoxyuridine]
MIC (K. pneumoniae EN0262): 2 µg/mL
MIC FdUrd (S. aureus no. 11; [3]): >4 µg/mL
MIC FdUrd (S. aureus no. 11; [4]): >4 µg/mL
MIC FdUrd (S. aureus no. 11; [5]): >4 µg/mL
MIC FdUrd (S. aureus no. 11; Iclaprim 0.03 μg/ml, Uridine 100 μg/ml): >4 µg/mL
MIC FdUrd (S. aureus no. 11; Iclaprim […], Uridine 0 μg/ml): >4 µg/mL
MIC FdUrd (S. aureus no. 11; [6]): >4 µg/mL
MIC (E. coli EN0138): 0.25 µg/mL
MIC (E. coli EN0134): >4 µg/mL
MIC (S. flexneri APV00906): >4 µg/mL
MIC (A. baumannii EN017): 0.5 µg/mL
MIC (K. pneumoniae EN011): 0.064 µg/mL
MIC (E. aerogenes EN0461): 1 µg/mL
MIC (K. pneumoniae EN0233): 0.5 µg/mL
MIC (P. aeruginosa EN015): 1 µg/mL
MIC FdUrd (E. coli strain no 2; Iclaprim 0, Uridine 0 μg/ml): >16 µg/mL
MIC FdUrd (E. coli strain no 2; Iclaprim 0, Uridine 100 μg/ml): >16 µg/mL
MIC FdUrd (E. coli strain no 2; Iclaprim 0, Uridine 300 μg/ml): >16 µg/mL
MIC FdUrd (E. coli strain no 2; Iclaprim 0, Uridine 500 μg/ml): >16 µg/mL
MIC FdUrd (E. coli strain no 2; Iclaprim 0.1, Uridine 0 μg/ml): >8 µg/mL
MIC FdUrd (E. coli strain no 2; Iclaprim 0.1, Uridine 100 μg/ml): >8 µg/mL
MIC FdUrd (E. coli strain no 2; Iclaprim 0.2, Uridine 0 μg/ml): >8 µg/mL
MIC (E. coli EN013): 0.016 µg/mL
MIC (P. aeruginosa EN005): 0.25 µg/mL
MIC (P. aeruginosa EN004; Table 8): >4 µg/mL
MIC (P. aeruginosa EN004; Table 19): >4 µg/mL
MIC (K. pneumoniae EN010): 0.5 µg/mL
MIC [1]: 0.06 µg/mL
MIC [2]: 0.06 µg/mL
MIC (E. coli EN0139): 0.5 µg/mL
MIC (K. pneumoniae EN0437): >4 µg/mL
MIC (K. pneumoniae EN0143): >4 µg/mL
MIC FdUrd (S. aureus no. 12; Iclaprim 0.008 μg/ml): >4 µg/mL
MIC FdUrd (S. aureus no. 12; Iclaprim 0.03 μg/ml): >4 µg/mL
MIC FdUrd (S. aureus no. 12; Iclaprim […]): >4 µg/mL
MIC FdUrd (S. aureus strain no 13; Table 26A (isolate not given), Iclaprim 0.015): >0.5 µg/mL
MIC FdUrd (S. aureus strain no 13; Table 26A (isolate not given), Iclaprim 0.03): >0.5 µg/mL
MIC FdUrd (S. aureus strain no 13; Table 26A (isolate not given), Iclaprim 0.08): >0.5 µg/mL
MIC FdUrd (S. aureus strain no 13; Table 30C, Iclaprim 0.008 μg/ml): >4 µg/mL
MIC FdUrd (S. aureus strain no 13; Table 30C, Iclaprim 0.03 μg/ml): >4 µg/mL
MIC FdUrd (S. aureus strain no 13; Table 30C, Iclaprim […]): >4 µg/mL
MIC (K. pneumoniae EN0401): >4 µg/mL
MIC (E. coli EN0135): 0.25 µg/mL
MIC FdUrd (S. aureus V308; Iclaprim 0 μg/ml, Uridine 0 μg/ml): >16 µg/mL
MIC FdUrd (S. aureus V308; Iclaprim 0 μg/ml, Uridine 100 μg/ml): >16 µg/mL
MIC FdUrd (S. aureus V308; [3]): >4 µg/mL
MIC FdUrd (S. aureus V308; [4]): >4 µg/mL
MIC FdUrd (S. aureus V308; [5]): >4 µg/mL
MIC FdUrd (S. aureus V308; Iclaprim 0.06 μg/ml, Uridine 0 μg/ml): >4 µg/mL
MIC FdUrd (S. aureus V308; Iclaprim […], Uridine 0 μg/ml): >4 µg/mL
MIC FdUrd (S. aureus V308; [6]): >4 µg/mL
MIC (K. pneumoniae EN0436): 0.25 µg/mL
